Results published in the supplement of paper PMC10331698.
± gives the standard deviation of the averaged measurements.

Assays:
Test in all cases: LOEC (log10 uM (lowest observed effect concentration))
[1] = compound: NS(=O)(=O)C(F)(F)C(F)(F)C(F)(F)C(F)(F)C(F)(F)C(F)(F)C(F)(F)C(F)(F)F [Perfluorooctanesulfonamide]
Protocol: (§1)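 BioMAP Diversity Plus panel in human primary cell co-cultures, 4 concentrations in duplicate blinded samples. Responses are log10 fold change versus DMSO control, processed with tcpl v2.1.0. A hit is called when responses at any concentration exceed the cutoff (the larger of 3*bmad or log10(1.2)); the lowest observed effect concentration (modl_ga, log10 uM) is reported for hits.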

[2] = compound: O=C(O)C(F)(F)OC(F)(F)C(F)(F)OC(F)(F)C(F)(F)OC(F)(F)C(F)(F)C(F)(F)C(F)(F)F [Perfluoro-3,6,9-trioxatridecanoic acid]
Protocol: as §1

[3] = compound: O=C(O)C=C(C(F)(F)F)C(F)(F)F [3,3-Bis(trifluoromethyl)-2-propenoic acid]
Protocol: as §1

Perfluorononanoic acid = compound: O=C(O)C(F)(F)C(F)(F)C(F)(F)C(F)(F)C(F)(F)C(F)(F)C(F)(F)C(F)(F)F [Perfluorononanoic acid]
Protocol: as §1

[4] = compound: CCNS(=O)(=O)C(F)(F)C(F)(F)C(F)(F)C(F)(F)C(F)(F)C(F)(F)C(F)(F)C(F)(F)F [N-Ethylperfluorooctanesulfonamide]
Protocol: as §1

[5] = compound: OCC(F)(F)OC(F)(F)C(F)(F)OC(F)(F)C(F)(F)OC(F)(F)CO [1H,1H,11H,11H-Perfluorotetraethylene glycol]
Protocol: as §1

Perfluoroundecanoic acid = compound: O=C(O)C(F)(F)C(F)(F)C(F)(F)C(F)(F)C(F)(F)C(F)(F)C(F)(F)C(F)(F)C(F)(F)C(F)(F)F [Perfluoroundecanoic acid]
Protocol: as §1

Row | Test System | LOEC (log10 uM) [1] | LOEC (log10 uM) [2] | LOEC (log10 uM) [3] | LOEC (log10 uM) (Perfluorononanoic acid) | LOEC (log10 uM) [4] | LOEC (log10 uM) [5] | LOEC (log10 uM) (Perfluoroundecanoic acid)
1 | 3C Eselectin down | 1.78 | 1.78 | 1.3 | – | – | – | –
2 | 3C HLADR down | 1.54 ± 0.34 | 1.78 | 1.78 | 1.78 | – | – | –
3 | 3C ICAM1 down | 1.78 | 1.78 | – | – | – | – | –
4 | 3C IL8 down | – | 1.3 | – | – | – | – | –
5 | 3C MCP1 down | 1.78 | 1.78 | – | 1.78 | – | – | –
6 | 3C MIG down | 1.78 | 1.78 | – | – | – | – | –
7 | 3C Proliferation down | 1.3 | 1.3 | – | 1.78 | 1.78 | 1.54 ± 0.34 | 0.845
8 | 3C SRB down | 1.3 | 1.3 | – | 1.78 | 1.78 | – | –
9 | 3C Thrombomodulin up | 1.3 | – | – | – | – | – | –
10 | 3C TissueFactor down | 1.78 | 1.3 | – | 1.78 | – | – | –
11 | 3C VCAM1 down | 1.78 | 1.78 | 1.54 ± 0.34 | 1.78 | 1.78 | – | –
12 | 3C uPAR down | 1.78 | 1.54 ± 0.34 | – | 1.78 | – | – | –
13 | 4H MCP1 down | 1.78 | 1.78 | – | – | 1.78 | 1.78 | –
14 | 4H Pselectin down | 1.78 | 1.78 | 1.78 | – | 1.54 ± 0.34 | – | –
15 | 4H SRB down | 1.3 | 1.78 | – | 1.78 | 1.78 | – | –
16 | 4H VCAM1 down | 1.78 | 1.54 ± 0.34 | 0.573 ± 0.39 | – | 1.78 | – | –
17 | 4H VEGFRII down | – | – | – | – | 1.78 | – | –
18 | 4H uPAR down | 1.78 | 1.78 | – | – | – | – | –
19 | BE3C EGFR down | 1.78 | – | – | – | 1.54 ± 0.34 | – | 0.845
20 | BE3C ICAM1 down | 1.78 | 0.845 | – | 1.78 | – | – | 0.845

Row | Test System | LOEC (log10 uM) [1] | LOEC (log10 uM) [2] | LOEC (log10 uM) [3] | LOEC (log10 uM) (Perfluorononanoic acid) | LOEC (log10 uM) [4] | LOEC (log10 uM) [5] | LOEC (log10 uM) (Perfluoroundecanoic acid)
21 | BE3C IL1a down | 1.78 | 0.845 | – | 1.78 | 1.78 | – | 0.845
22 | BE3C ITAC down | 1.3 | 0.845 | – | 1.78 | 1.3 | – | 0.301
23 | BE3C Keratin818 down | 1.78 | 0.845 | – | 1.78 | 0.845 | – | 0.845
24 | BE3C MIG down | 1.78 | 0.845 | – | 1.78 | 1.78 | – | 0.845
25 | BE3C MMP9 down | 0.845 | 0.845 | – | 1.78 | 0.845 | – | -0.199 ± 0.71
26 | BE3C PAI1 down | 0.845 | 0.573 ± 0.39 | – | 1.54 ± 0.34 | 0.845 | – | -0.199 ± 0.71
27 | BE3C SRB down | 1.78 | 0.845 | – | 1.78 | 1.78 | – | 0.845
28 | BE3C uPA down | 1.78 | 0.845 | – | 1.31 ± 0.66 | – | – | 0.845
29 | BE3C uPAR down | 1.78 | 0.845 | – | 1.78 | 1.3 | – | 0.845
30 | BF4T CD90 down | 1.78 | 1.3 | – | – | – | – | –
31 | BF4T ICAM1 down | 1.54 ± 0.34 | 1.07 ± 0.32 | – | 1.78 | 1.78 | – | 0.845
32 | BF4T IL1a down | 1.78 | 1.3 | – | 1.78 | 1.78 | – | 0.845
33 | BF4T IL8 down | 1.78 | – | – | 1.78 | – | – | –
34 | BF4T Keratin818 down | 1.54 ± 0.34 | 1.3 | – | 1.78 | 1.54 ± 0.34 | – | 0.845
35 | BF4T MCP1 down | 1.78 | 1.07 ± 0.32 | – | 1.3 | 1.3 | 1.3 | 0.845
36 | BF4T MMP1 down | – | 1.3 | – | 1.78 | 1.78 | – | 0.845
37 | BF4T MMP3 down | 1.78 | 1.07 ± 0.32 | – | 1.78 | – | – | 0.845
38 | BF4T MMP9 down | 1.3 | 1.07 ± 0.32 | – | 1.78 | 1.54 ± 0.34 | – | 0.845
39 | BF4T PAI1 down | 1.78 | 1.3 | – | 1.78 | – | – | 0.845
40 | BF4T SRB down | 1.78 | 1.3 | – | 1.78 | 1.78 | – | 0.845

Row | Test System | LOEC (log10 uM) [1] | LOEC (log10 uM) [2] | LOEC (log10 uM) [3] | LOEC (log10 uM) (Perfluorononanoic acid) | LOEC (log10 uM) [4] | LOEC (log10 uM) [5] | LOEC (log10 uM) (Perfluoroundecanoic acid)
41 | BF4T VCAM1 down | 1.3 | 0.845 | – | 1.07 ± 0.32 | 0.845 | – | 0.845
42 | BF4T uPA down | 1.78 | 1.3 | – | 1.78 | – | – | 0.845
43 | BT Bcell Proliferation down | – | – | 1.78 | – | – | – | –
44 | BT Bcell Proliferation up | – | – | – | 1.78 | – | – | –
45 | BT sIgG down | 1.54 ± 0.34 | 1.78 | 1.78 | – | 1.54 ± 0.34 | 1.78 | –
46 | BT xIL17A down | 1.78 | 1.78 | 1.78 | – | – | – | –
47 | BT xIL17F down | 1.78 | 1.78 | 0.573 ± 0.39 | – | 1.54 ± 0.34 | 1.78 | –
48 | BT xTNFa down | 1.54 ± 0.34 | – | 1.54 ± 0.34 | – | – | 1.78 | –
49 | CASM3C HLADR down | – | – | 0.573 ± 0.39 | – | – | – | –
50 | CASM3C LDLR down | 1.78 | 1.78 | – | – | – | – | –
51 | CASM3C Proliferation down | 1.78 | 1.78 | 1.78 | – | – | – | –
52 | CASM3C SRB down | 1.78 | 1.78 | – | – | – | – | –
53 | CASM3C uPAR down | 1.78 | – | – | – | – | – | –
54 | IMphg IL1a down | – | 1.54 ± 0.34 | – | – | – | – | –
55 | IMphg SRB down | 1.78 | 1.78 | – | – | – | – | –
56 | IMphg SRB.Mphg down | 1.78 | 1.78 | – | – | – | – | –
57 | KF3CT ICAM1 down | 1.78 | 1.3 | – | – | – | – | 0.845
58 | KF3CT IL8 down | 1.78 | – | – | – | – | – | 0.845
